From patent publication US20120035187A1 (priority 2009, published 2012)

Experiments:
[1] = tested on: PC12-HS cells; test: Evaluation B: neurite-outgrowth action in presence of NGF; format: cell-based, rat; details: for Evaluation B: Neurite-outgrowth action: 50 μl of 400 ng/ml test sample solution per well + NGF final 5 ng/ml
[2] = tested on: ICR mice administered with amyloid β fragment; test: Novel object recognition test, mouse administered with amyloid β fragment, agents of Example 1; format: in vivo; design: key: (novel − memorized seeking time)/(novel + memorized seeking time); details: agent of Example 1, 0.3 ml/head intraperitoneally once a day up to the 8th day
Description: One hundred and thirty ICR mice (commercialized by Charles Liver Laboratories Japan Inc., Kanagawa, Japan) were randomly divided into 13 groups, consisting of 10 mice in each group. Amyloid β fragment, represented by an amino acid sequence of SEQ ID NO: 1, used in Experiment 3 was aged at 37° C. for four days, and administered to the lateral ventricle of each mouse in an amount of 9 nmol/6 μl/mouse (the administration method is referred to “Brain Research”, Vol. 706, pp. 181-193 (1996)). […] The mice (10 heads) in the remaining one group were intraperitoneally administered with a sterilized 10% maltose solution (pyrogen-free) once a day up to the 8th day in an amount of 0.3 ml/mouse (control). On the 8th day after the administration, novel object recognition test (see, Japanese Patent Kokai No. 2008-193941) was performed and the average discrimination index (the ratio of prolonged seeking time for novel object to the total seeking time) as a cognitive function index were shown in Table 26. On the 9th day after the administration, the brain of the mice was anatomically isolated, prepared into tissue samples in conventional manner. Depositions of aggregation of amyloid fragment were observed by staining with Congo red or thioflavin T, and degeneration or defect of hippocampal pyramidal cells concerned with cognitive function. The degeneration or the defect of hippocampal pyramidal cells was evaluated by 4-point grade score, by regarding the condition of the control without administration of amyloid β fragment as “none (O)”, “slight (1)”, “moderate (2)”, and “sever (3)”, and the average scores of 10 mice are shown in Table 20.
An experiment apparatus (a glass box of 30 cm in depth, 45 cm in width, and 30 cm in height) and two kinds of objects to be memorized by mice were provided. On the day before the test, the mice were allowed to seek freely in the experiment apparatus with no seeking object for 10 minutes for acclimation. On the test day, the following test was performed twice at an interval of 60 minutes. In the first trial, the same two objects were placed in the apparatus at its both ends, and the mouse was allowed to seek freely for 10 minutes. On the second trial, one of the objects used in the first test was replaced with a different kind of object, and then the mouse was allowed to seek freely for five minutes. In each experiment, when the mouse brought its muffle close to the object within 1-cm apart from the object, or made its muffle or whiskers to contact with the object, the mouse was judged to have a seeking behavior, and the seeking time thereof was measured. The object discrimination index [={(seeking time for novel object)−(seeking time for memorized object)}/{(seeking time of novel object)+(seeking time of memorized object)}] was calculated. The object discrimination index means the ratio of an increased seeking time for novel object to the total seeking time, and the ratio becomes larger when the memory of the once sought object was more strongly held, and it becomes smaller when the memory was more weakly held.

[3] = tested on: hamsters with cerebellar ataxia; test: Rotarod test in hamsters with cerebellar ataxia; format: in vivo, hamster; details: for improving effect on motor coordination (in words): cerebellar ataxia hamsters, agents of Example 1 compared among pentamethine cyanine dye compounds; for Time of falling from rotarod: hamster with cerebellar ataxia, agent of Example 1, 0.5 ml/hamster intraperitoneally once a day for 56 days
Description: Since NK-4 was confirmed to have a neurodegenerative inhibitory action in Experiment 1, hamsters with cerebellar ataxia (cerebellar ataxia is called “cerebellar A” and hamsters with cerebellar ataxia are called “hamsters with cerebellar A”, hereinafter) as a suitable model for human neurodegenerative diseases (e.g., spinal cerebellar degeneration) were subjected to examine the influence of NK-4 administration on their behaviors and brain tissues. Twenty-five hamsters with natural mutation (Nna1 inhibition), which are known to lose Purkinje's cells after three-weeks of age and then induce a spontaneous onset of kinetic motor ataxia after seven-weeks of age (see Akita K. et al., “J. Neurogenetics”, Vol. 21, pp. 19-29, 2007), had been fed at Hayashibara Biochemical Laboratories., Inc., Okayama, Japan, were randomly allocated to the test groups 1 to 5, five heads in each group, as shown in Table 2. Prior to the onset of cerebellar A (at three-weeks of age), PBS was started to administer to the hamsters in the test group 1 at a dose of 10 ml/kg/day. Prior to the onset of cerebellar A (at three-weeks of age), NK-4 was started to be administered to the hamsters in the test groups 2 to 4 at a daily dose of 20 μg/kg, 100 μg/kg or 500 μg/kg. “IGF-1, human, a product name of insulin-like growth factor, commercialized by Assaypro LLC, MO, USA. These administered ingredients were intraperitoneally administered daily to hamsters once a day up to 10-weeks of age. The degree of symptom of cerebellar A and the improvement effect on the symptom by NK-4 were evaluated with an index of improvement in motor coordination of hamsters by conducting once a week the later described rotarod test and the slant tolerance test. At the age of 10-weeks, the hamsters were subjected to counting the falling down frequency and extracted their brains, which were then histologically evaluated. In parallel, the concentration of glutamic acid in the bloods and cerebrospinal fluids (CSF) of the hamsters was assayed. As a test group 6, five normal hamsters, with the same age as the hamsters with cerebellar A used in the test groups 1 to 5, were provided and tested similarly as the hamsters with cerebellar A in such a manner of intraperitoneally administering PBS to them at a dose of 10 ml/kg/day once a day up to 10-weeks of age.
As an index for coordinated movement, it was used a duration time of hamster's movement to staying on a rotarod by locomotion in synchronization with the turn of the rotarod; placing a hamster on an apparatus with a rotarod (having a diameter of 60 mm, prepared by Hayashibara Biochemical Laboratories, Inc., Okayama, Japan), turning at a constant rate of six rpm, and measuring the time until the hamster falls down from the rotarod (see Fernandez et al., “Proc. Natl. Acad. Sci. USA”, Vol. 95, pp. 1253-1258, 1998). The test was repeated six times for each hamster, where five-times of tests starting from the initiation of the test were made as a preliminary examination, and the time until each hamster fell down from the rotarod (called “falling time”, hereinafter) was measured, followed by averaging the falling times for each group consisting of five heads. The falling time was measured until 180 seconds. Based on the results, the relationship between the age and the falling time for each hamster with cerebellar A (test group 1) administered with PBS was graphed. […]
Similarly as in Experiment 2, 130 hamsters with cerebellar ataxia, born within the same week and 3-weeks of age, were randomly divided into 13 groups, consisting of 10 hamsters, respectively. […]

[4] = compound concentration 80 ng/ml
[5] = compound concentration 400 ng/ml
[6] = compound concentration 2000 ng/ml
[7] = compound concentration 10000 ng/ml
[8] = final concentration of compound 200 ng/ml
[9] = final concentration of compound 400 ng/ml
[10] = final concentration of compound 800 ng/ml
[11] = final concentration of compound 1600 ng/ml

`CCCCN1C=C/C(=C/C=C(/C=C/c2cc[n+](CCCC)c3ccccc23)c2cc[n+](CCCC)c3ccccc23)c2ccccc21` [NK-26] was tested, and the “Action on neurite outgrowth (%)” value [1, 4] was 72 ± 4%, the “Action on neurite outgrowth (%)” value [1, 5] was 71 ± 7% and the “Action on neurite outgrowth (%)” value [1, 6] was 25 ± 7%. For the same molecule, the “Action on neurite outgrowth (%)” value [1, 7] was 10< %, the Object discrimination index [2] was 0.1 and the “improving effect on motor coordination (in words)” value [3] was “particularly high improving effect on motor coordination”. The “Time of falling from rotarod” value [3] was 90.0 ± 7.1 s.
`CCCCCCCN1C=CC(=CC=C(C=Cc2cc[n+](CCCCCCC)c3ccccc23)c2cc[n+](CCCCCCC)c3ccccc23)c2ccccc21.[I-].[I-]` [NK-28] was tested, and the “Action on neurite outgrowth (%)” value [1, 4] was 38 ± 1%, the “Action on neurite outgrowth (%)” value [1, 5] was 64 ± 10% and the “Action on neurite outgrowth (%)” value [1, 6] was 70 ± 11%. For the same molecule, the “Action on neurite outgrowth (%)” value [1, 7] was 46 ± 20%, the Object discrimination index [2] was 0.2 and the “Time of falling from rotarod” value [3] was 69.0 ± 28 s.
`CCN1/C(=C/C=C(/C=C/c2sc3ccccc3[n+]2CC)c2sc3ccccc3[n+]2CC)Sc2ccccc21.[I-].[I-]` [NK-100] was tested, and the “Evaluation B: Neurite-outgrowth action” value ([1]; 3 days) was “∘ (The test sample with a neurite outgrowth rate of 30% or higher was judged to be equivalent or more (∘) compared with NK-4)”, the “Rate of cells exhibiting neurite outgrowth (%)” value (“Rate … (%)” for short) [1, 8] was 36 ± 2% and the “Rate … (%)” value [1, 9] was 40 ± 8%. For the same molecule, the “Rate … (%)” value [1, 10] was 52 ± 7%, the “Rate … (%)” value [1, 11] was 89 ± 6% and the Object discrimination index [2] was 0.1. The “Time of falling from rotarod” value [3] was 61.9 ± 9.4 s.
With `CCCCCCCCN1C=CC(=CC=C(C=Cc2cc[n+](CCCCCCCC)c3ccccc23)c2cc[n+](CCCCCCCC)c3ccccc23)c2ccccc21.[I-].[I-]` [NK-147] the “Action on neurite outgrowth (%)” value [1, 4] was 32 ± 7%, the “Action on neurite outgrowth (%)” value [1, 5] was 50 ± 5% and the “Action on neurite outgrowth (%)” value [1, 6] was 70 ± 11%. The “Action on neurite outgrowth (%)” value [1, 7] was 35 ± 14%, the Object discrimination index [2] was 0.2 and the “Time of falling from rotarod” value [3] was 56.5 ± 9.8 s.
In the case of `CCCCCCCCCN1C(C)=CS\C1=C/C=C(\C=C\c1scc(C)[n+]1CCCCCCCCC)c1scc(C)[n+]1CCCCCCCCC.[I-].[I-]` [NK-393], the “Percentage (%) of cells with neurite outgrowth” value ([1]; 50 μl/well of 2 μg/ml test solution + NGF final 5 ng/ml, 3 days) is reported as 68%, the Object discrimination index [2] is reported as 0.2 and the “improving effect on motor coordination (in words)” value [3] is reported as “particularly high improving effect on motor coordination”. For the same molecule, the “Time of falling from rotarod” value [3] was 86.5 ± 1.8 s.
`CN(C)c1ccc(/C=C/c2oc3ccccc3[n+]2C)cc1` [NK-528] was tested, and the “Evaluation B: Neurite-outgrowth action” value ([1]; 3 days) was “∘ (The test sample with a neurite outgrowth rate of 30% or higher was judged to be equivalent or more (∘) compared with NK-4)”, the Object discrimination index [2] was 0.3 and the “Time of falling from rotarod” value [3] was 37.5 ± 11.2 s.
In the case of `CC[n+]1ccccc1/C=C/c1ccc(N(C)C)cc1` [NK-557], the “Evaluation B: Neurite-outgrowth action” value ([1]; 3 days) is reported as “∘ (The test sample with a neurite outgrowth rate of 30% or higher was judged to be equivalent or more (∘) compared with NK-4)”, the “Rate … (%)” value [1, 8] is reported as 10> % and the “Rate … (%)” value [1, 9] is reported as 20 ± 2%. For the same molecule, the “Rate … (%)” value [1, 10] was 43 ± 5%, the “Rate … (%)” value [1, 11] was 84 ± 42% and the Object discrimination index [2] was 0.4. The “Time of falling from rotarod” value [3] was 39.9 ± 5.1 s.
With `COc1ccc2oc(/C=C/c3ccc(N(C)C)cc3)[n+](C)c2c1` [NK-1516] the “Evaluation B: Neurite-outgrowth action” value ([1]; 3 days) was “∘ (The test sample with a neurite outgrowth rate of 30% or higher was judged to be equivalent or more (∘) compared with NK-4)”, the Object discrimination index [2] was 0.4 and the “Time of falling from rotarod” value [3] was 42.4 ± 6.3 s.
